{"source": "paper PMC7883873", "about": "“Discovery of New Catalytic Topoisomerase II Inhibitors for Anticancer Therapeutics” (Frontiers in Oncology, 2021)", "key": {"TOP2A (431–1193)": {"target": "T1, TOP2A (431–1193) (Homo sapiens, UniProt P11388)", "T1 construct": "was incorporated with TOP2A (431–1193); made in house; host or cells: Escherichia coli BL21 co-expressing biotin ligase", "T1 sequence (P11388 431-1193)": "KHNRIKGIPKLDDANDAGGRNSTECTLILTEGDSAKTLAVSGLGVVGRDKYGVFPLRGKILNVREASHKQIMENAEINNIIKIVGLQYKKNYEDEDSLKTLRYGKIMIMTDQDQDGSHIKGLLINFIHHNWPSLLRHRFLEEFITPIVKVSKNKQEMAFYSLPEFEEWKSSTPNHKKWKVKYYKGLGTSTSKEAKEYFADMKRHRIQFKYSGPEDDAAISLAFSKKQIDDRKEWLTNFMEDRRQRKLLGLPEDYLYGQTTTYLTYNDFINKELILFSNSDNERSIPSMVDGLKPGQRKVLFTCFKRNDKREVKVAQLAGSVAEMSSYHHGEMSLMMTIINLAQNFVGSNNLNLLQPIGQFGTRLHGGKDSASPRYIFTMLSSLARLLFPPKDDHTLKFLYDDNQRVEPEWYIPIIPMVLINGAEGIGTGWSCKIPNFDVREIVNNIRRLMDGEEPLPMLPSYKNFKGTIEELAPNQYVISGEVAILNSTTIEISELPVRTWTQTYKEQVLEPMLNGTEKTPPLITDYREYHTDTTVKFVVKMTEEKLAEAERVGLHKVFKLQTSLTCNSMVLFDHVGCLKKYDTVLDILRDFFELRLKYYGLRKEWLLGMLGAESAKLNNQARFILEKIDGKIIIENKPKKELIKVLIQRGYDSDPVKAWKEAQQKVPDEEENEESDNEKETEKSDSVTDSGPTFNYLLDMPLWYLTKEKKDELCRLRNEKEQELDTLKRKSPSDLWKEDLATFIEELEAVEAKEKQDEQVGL", "assay": "Electrophoresis mobility shift assay (EMSA)", "assay_type": "binding", "conditions": "200 µM; 30 µM protein, 300 nM 5ZRF oligo", "method": "EMSA followed the standard protocols as we and others described with minor modifications ([54]–[56]). The double-strand DNA oligo, 5ZRF (AGCCGAGCTGCAGCTCGGCT labeled by IRDye700) was purchased from IDT (Coralville, USA). Human TOP2 (431–1193), TOP2A (TopoGEN) or TOP2B (Inspiralis) proteins were incubated with 300 nM of 5ZRF oligo in a standard 20 µl EMSA reaction in a reaction buffer containing 20 mM HEPES-NaOH, pH 7.4, 2 mM DTT, 3 mM MgCl2, 0.05% NP-40, protease inhibitors, and 0.1 µg poly[dI:dC]. After incubation for 30 min at 37C, reactions were loaded onto 4% non-denatured polyacrylamide gel in 0.5× TBE buffer. The DNA oligo bands were visualized by using the Li-Cor Odyssey 9120 Infrared Imaging System."}, "HeLa cells": {"system": "HeLa cells", "assay": "BrdU incorporation assay", "assay_type": "cell-based", "conditions": "20 µM, 48 h", "method": "(§1) Cell proliferation rates were measured by using the CellTitre 96 AqueousOne kit (Promega) and bromodeoxyuridine (BrdU) assay kit (Millipore) according to the manufacturer’s protocol as we have described ([51]). Cytotoxicity was evaluated by using the commercial kit (CAT# 8078, ThermoFisher). Culture media was collected and used to measure lactate dehydrogenase (LDH) levels by a colorimetric method following the manufacture’s protocol (ThermoFisher). Cell cycling was assessed by using BrdU incorporation into S-phase DNA by using the APC BrdU flow kit (BD Pharmingen; Franklin Lakes, New Jersey) according to the manufacturer’s protocol. 1 mM of BrdU was added to cells and incubated for 6 h. Cells were incubated with anti-BrdU antibody and stained with 7-AAD before processing the cells for flow cytometry ([52]). Immunoblotting assays followed the standard protocol as we have reported ([51]–[53])."}, "[1]": {"system": "phospho-H2AXγ protein levels in K562 cells", "assay": "Immunoblotting of phospho-H2AXγ (DNA damage)", "assay_type": "cell-based", "conditions": "4 h", "method": "as §1"}, "LNCaP95": {"system": "LNCaP95", "assay": "Cell viability, MTS assay", "assay_type": "cell-based", "conditions": "0-20 µM", "method": "as §1"}, "LNCaP": {"system": "LNCaP", "assay": "Cell viability, MTS assay", "assay_type": "cell-based", "conditions": "0-20 µM", "method": "as §1"}, "MR49F": {"system": "MR49F", "assay": "Cell viability, MTS assay", "assay_type": "cell-based", "conditions": "0-20 µM", "method": "as §1"}, "PC3": {"system": "PC3", "assay": "Cell viability, MTS assay", "assay_type": "cell-based", "conditions": "0-20 µM; compared to AR-positive PCa cell lines", "method": "as §1"}, "U937 leukemia cells": {"system": "U937 leukemia cells", "assay": "Cell viability, MTS assay", "assay_type": "cell-based", "conditions": "T60 alone, up to 20 µM", "method": "as §1"}, "[2]": {"system": "K562, U937, NCI-H82, and NCCIT cancer cells", "assay": "Co-treatment with paclitaxel or camptothecin, MTS assay", "assay_type": "cell-based", "conditions": "5-20 µM T60 co-treatment", "method": "as §1"}, "phospho-H2AXγ expression": {"system": "phospho-H2AXγ expression", "assay": "Phospho-H2AXγ expression in multiple cancer cell models", "assay_type": "cell-based", "conditions": "5 µM, 4 hours", "method": "as §1"}, "[3]": {"system": "AR target genes such as PSA and FKBP5", "assay": "Real-time PCR of AR target genes", "assay_type": "cell-based", "conditions": "LNCaP and LNCaP95 cells, 0-20 µM, −/+10nM DHT"}, "[4]": {"system": "GFP-AR transfected DU145 cells", "assay": "AR subcellular localization by microscopy", "assay_type": "cell-based", "conditions": "20 µM, 24 h"}, "TOP2A [5]": {"target": "T2, TOP2A (Homo sapiens, UniProt P11388)", "T2 sequence (P11388 whole entry)": "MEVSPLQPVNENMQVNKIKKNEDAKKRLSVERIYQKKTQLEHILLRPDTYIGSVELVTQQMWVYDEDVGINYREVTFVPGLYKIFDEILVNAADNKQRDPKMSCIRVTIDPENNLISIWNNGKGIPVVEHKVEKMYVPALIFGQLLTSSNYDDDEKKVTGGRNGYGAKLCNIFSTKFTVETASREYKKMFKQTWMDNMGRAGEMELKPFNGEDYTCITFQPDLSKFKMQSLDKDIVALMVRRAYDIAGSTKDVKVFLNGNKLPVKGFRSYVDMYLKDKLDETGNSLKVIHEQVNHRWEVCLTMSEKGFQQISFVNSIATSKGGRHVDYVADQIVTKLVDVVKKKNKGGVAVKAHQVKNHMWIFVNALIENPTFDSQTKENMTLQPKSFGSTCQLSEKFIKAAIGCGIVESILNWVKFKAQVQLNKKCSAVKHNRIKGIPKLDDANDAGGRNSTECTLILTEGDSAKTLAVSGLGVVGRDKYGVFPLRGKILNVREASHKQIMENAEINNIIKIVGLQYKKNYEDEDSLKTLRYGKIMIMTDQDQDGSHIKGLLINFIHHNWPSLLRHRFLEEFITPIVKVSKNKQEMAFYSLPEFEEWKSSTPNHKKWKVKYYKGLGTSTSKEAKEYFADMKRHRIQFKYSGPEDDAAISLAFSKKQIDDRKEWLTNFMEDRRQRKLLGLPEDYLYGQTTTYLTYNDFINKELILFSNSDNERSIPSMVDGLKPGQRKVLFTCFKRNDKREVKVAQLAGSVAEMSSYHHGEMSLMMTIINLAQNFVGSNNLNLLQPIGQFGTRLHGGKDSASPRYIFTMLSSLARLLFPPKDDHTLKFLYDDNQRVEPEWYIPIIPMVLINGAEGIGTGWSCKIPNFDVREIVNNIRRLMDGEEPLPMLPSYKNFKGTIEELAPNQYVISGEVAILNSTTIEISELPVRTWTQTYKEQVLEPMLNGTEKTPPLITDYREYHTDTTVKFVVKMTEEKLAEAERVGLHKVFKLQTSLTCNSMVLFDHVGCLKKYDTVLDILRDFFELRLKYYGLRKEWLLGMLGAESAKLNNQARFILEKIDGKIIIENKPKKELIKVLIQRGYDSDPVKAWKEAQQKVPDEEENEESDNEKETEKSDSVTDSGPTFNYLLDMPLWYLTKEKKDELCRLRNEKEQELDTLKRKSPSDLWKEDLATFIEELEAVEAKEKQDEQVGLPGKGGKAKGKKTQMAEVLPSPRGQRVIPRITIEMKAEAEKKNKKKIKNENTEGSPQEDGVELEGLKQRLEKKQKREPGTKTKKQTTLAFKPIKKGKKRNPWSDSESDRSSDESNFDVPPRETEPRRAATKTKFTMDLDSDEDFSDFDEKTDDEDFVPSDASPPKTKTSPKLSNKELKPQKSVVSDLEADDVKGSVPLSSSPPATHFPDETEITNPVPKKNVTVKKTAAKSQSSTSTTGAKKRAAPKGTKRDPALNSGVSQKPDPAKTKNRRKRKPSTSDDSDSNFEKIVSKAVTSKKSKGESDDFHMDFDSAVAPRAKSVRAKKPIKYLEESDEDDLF", "assay": "DNA cleavage assay", "assay_type": "biochemical", "design": "full-length human TOP2A and TOP2B protein (TopoGEN and Inspiralis respectively); purchased TopoGEN TG1001 (human TOP2 assay kit)", "conditions": "co-treatment with 200 µM etoposide; 1, 100, 200 µM", "method": "The reactions were incubated in 37C for 30 min and stopped by adding 2 µl of 10% SDS and 1 µl of 250 mM of EDTA, followed by the addition of 50 µg/ml of proteinase K at 45C for 30 min. The reaction was then resolved by electrophoresis on a 1% agarose gel containing […] ethidium bromide in TAE buffer at 60 V. DNA bands were visualized using a gel imager (Gel Doc™ EZ System) and quantified by using the Image Studio™ Lite Quantification Software."}, "TOP2A [6]": {"target": "T2, TOP2A", "assay": "Cellular thermal shift assay", "assay_type": "cell-based", "design": "endogenous in cells; host or cells: K562 (the thermal shift text says HeLa, the legend says K562); K562 for chromatin fractionation", "conditions": "20 µM; vehicle 40C; Hela cells", "method": "(§2) In the thermal shift assays, cells were treated with vehicle or T60 for 1 h and split into equal aliquots to be heated at 37 to 46°. Protein lyses were collected to perform immunoblotting assays with TOP2 antibodies (Abcam 12318, Santa Cruz sc-13059 & sc-365071). Our chromatin fractionation assays followed the protocol as previously described (Méndez & Stillman, 2000; Wysocka, Reilly, & Herr, 2001). Briefly, K562 cells (4 × 10 ([7]) cells/ml) were collected and re-suspended in buffer A (10 mM HEPES [pH 7.9], 10 mM KCl, 1.5 mM MgCl2, 0.34 M sucrose, 10% glycerol, 1 mM DTT, and protease inhibitor cocktail), before Triton X-100 was added to final concentration at 0.1%. Cells were then incubated on ice for 10 min, and nuclei were collected by centrifugation at speed of 1,300g for 4 min at 4°C. The nuclei were then washed once with buffer A and then incubated with buffer B (3 mM EDTA, 0.2 mM EGTA, 1 mM DTT, and protease inhibitor cocktail [ROCHE]) for 30 min in ice. Insoluble chromatin was collected by centrifugation at 1,700g for 4 min at 4°C, and washed once with buffer B. Chromatin associated proteins were extracted by incubation with Buffer C [500 mM Tris-HCl (pH 6.8), 500 mM NaCl, and protease inhibitor cocktail (ROCHE)] followed by brief sonication. The supernatant was collected to perform immunoblotting assays with TOP2 antibodies as we have described ([51]–[53])."}, "TOP2B": {"target": "TOP2B (Homo sapiens, UniProt Q02880)", "sequence (Q02880 2-1626 limits assumed)": "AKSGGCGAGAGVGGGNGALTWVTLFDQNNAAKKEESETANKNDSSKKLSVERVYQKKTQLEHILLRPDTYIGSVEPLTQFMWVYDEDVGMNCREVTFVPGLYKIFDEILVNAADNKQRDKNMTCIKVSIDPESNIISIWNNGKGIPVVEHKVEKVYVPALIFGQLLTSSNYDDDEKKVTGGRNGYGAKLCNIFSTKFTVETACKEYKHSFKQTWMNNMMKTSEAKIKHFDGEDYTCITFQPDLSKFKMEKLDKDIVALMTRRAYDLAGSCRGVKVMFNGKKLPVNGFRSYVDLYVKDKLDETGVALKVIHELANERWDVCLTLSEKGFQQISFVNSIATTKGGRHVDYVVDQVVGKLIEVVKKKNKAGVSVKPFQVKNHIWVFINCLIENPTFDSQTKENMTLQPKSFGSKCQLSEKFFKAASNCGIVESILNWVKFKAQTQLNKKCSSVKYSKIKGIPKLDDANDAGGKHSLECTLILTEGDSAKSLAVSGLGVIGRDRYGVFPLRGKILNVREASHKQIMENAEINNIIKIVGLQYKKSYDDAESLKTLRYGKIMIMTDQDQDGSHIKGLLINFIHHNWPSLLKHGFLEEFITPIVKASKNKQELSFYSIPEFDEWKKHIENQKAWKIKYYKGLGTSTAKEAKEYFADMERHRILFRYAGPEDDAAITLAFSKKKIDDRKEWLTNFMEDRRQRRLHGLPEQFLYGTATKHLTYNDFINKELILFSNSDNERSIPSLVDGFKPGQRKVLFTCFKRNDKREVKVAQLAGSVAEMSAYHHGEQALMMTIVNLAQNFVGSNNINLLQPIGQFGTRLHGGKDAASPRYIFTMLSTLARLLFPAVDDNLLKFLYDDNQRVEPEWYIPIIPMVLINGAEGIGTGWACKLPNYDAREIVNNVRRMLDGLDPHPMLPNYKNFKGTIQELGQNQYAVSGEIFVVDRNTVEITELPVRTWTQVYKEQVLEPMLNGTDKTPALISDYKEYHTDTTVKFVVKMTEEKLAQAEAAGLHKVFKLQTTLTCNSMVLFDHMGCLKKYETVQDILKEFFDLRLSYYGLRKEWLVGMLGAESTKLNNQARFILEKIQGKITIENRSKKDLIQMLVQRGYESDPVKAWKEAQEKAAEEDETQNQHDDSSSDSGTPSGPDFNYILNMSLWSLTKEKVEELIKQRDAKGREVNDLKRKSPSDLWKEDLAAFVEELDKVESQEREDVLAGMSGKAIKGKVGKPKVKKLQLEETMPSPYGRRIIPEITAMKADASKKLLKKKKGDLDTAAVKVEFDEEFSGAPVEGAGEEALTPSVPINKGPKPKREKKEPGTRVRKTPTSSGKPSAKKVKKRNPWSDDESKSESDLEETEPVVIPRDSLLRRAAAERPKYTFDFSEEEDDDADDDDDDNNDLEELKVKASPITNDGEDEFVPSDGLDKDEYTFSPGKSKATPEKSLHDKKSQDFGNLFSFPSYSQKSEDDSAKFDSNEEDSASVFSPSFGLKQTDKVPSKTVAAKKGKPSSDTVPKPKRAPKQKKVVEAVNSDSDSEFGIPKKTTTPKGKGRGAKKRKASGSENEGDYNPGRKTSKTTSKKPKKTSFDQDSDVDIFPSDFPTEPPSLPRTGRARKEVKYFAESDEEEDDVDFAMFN", "assay": "Cellular thermal shift assay", "assay_type": "cell-based", "design": "endogenous in cells; host or cells: K562 (the thermal shift text says HeLa, the legend says K562); K562 for chromatin fractionation", "conditions": "20 µM; vehicle 40C; Hela cells", "method": "as §2"}}, "data": [{"smiles": "O=C(Nc1ccc(Nc2ccccc2)cc1)c1ccc[nH]c1=S", "note": "[T60]", "values": [{"measurement": "Abolishment of TOP2A (431–1193)-induced upshifted DNA band", "setting": "TOP2A (431–1193)", "value": "abolished"}, {"measurement": "DNA replication (BrdU incorporation)", "setting": "HeLa cells", "value": "reduced DNA replication"}, {"measurement": "Effect on etoposide-induced phospho-H2AXγ protein levels", "setting": "[1]; 20 µM, co-treated with 10–20 µM etoposide", "value": "inhibited etoposide-induced phospho-H2AXγ protein levels"}, {"measurement": "Intracellular DNA damage (phospho-H2AXγ protein levels)", "setting": "[1]; 10–20 µM", "value": "did not cause intracellular DNA damage"}, {"measurement": "Cell viability, LNCaP95", "setting": "LNCaP95", "value": "strongly suppressed"}, {"measurement": "Cell viability, LNCaP", "setting": "LNCaP", "value": "strongly suppressed"}, {"measurement": "Cell viability, MR49F", "setting": "MR49F", "value": "strongly suppressed"}, {"measurement": "Cell viability, PC3", "setting": "PC3", "value": "to a much less extent"}, {"measurement": "Inhibition of cell growth, U937", "setting": "U937 leukemia cells", "value": "completely inhibited"}, {"measurement": "Effect on effectiveness of paclitaxel and camptothecin in suppressing cancer cell growth", "setting": "[2]", "value": "enhanced the effectiveness of these drugs"}, {"measurement": "DNA damage (phospho-H2AXγ expression) in all cell models", "setting": "phospho-H2AXγ expression", "value": "not accompanied by DNA damage"}, {"measurement": "mRNA expression of AR target genes (PSA, FKBP5)", "setting": "[3]", "value": "inhibited mRNA expression of AR target genes"}, {"measurement": "Nuclear localization of GFP-AR, DU145", "setting": "[4]", "value": "reduced nuclear localization"}, {"measurement": "Prevention of etoposide-induced DNA cleavage, TOP2A", "setting": "TOP2A [5]", "value": "prevented"}, {"measurement": "Temperature up to which TOP2A protein is stabilized", "setting": "TOP2A [6]", "value": "up to 43 C"}, {"measurement": "Temperature up to which TOP2B protein is stabilized", "setting": "TOP2B", "value": "up to 43 C"}]}]}
